Molecules are shown by their SMILES.

Results on six compounds are retold here after US20040132807A1, “Aurones as telomerase inhibitors” (priority 2001, published 2004).

The target in this assay is T1, telomerase enzyme (Homo sapiens, UniProt O14746).
T1 construct: telomerase enzyme diluted in a buffer
In words: Flash Plate-based telomerase activity assay. Type of assay: biochemical. The settings on record: two hours incubation at 37°, biotinylated oligo primer, radiolabeled probe, streptavidin flash plate; read-out: IC50 (telomerase inhibitory activity). On the procedure:
The telomerase activity of the compounds has been evaluated using a Flash Plate-based assay.
The assay mixture is constituted of:
telomerase enzyme diluted in a buffer, the composition of which has been selected to maintain the enzyme activity stable along the duration of the assay.
dNTPs, deoxynucleotides 5′-triphosphate.
biotinylated oligo as primer.
increasing concentrations of test compounds/positive control.
After two hours of incubation at 37° degrees the telomeric repeats added by telomerase are evaluated by hybridization in solution with a 3′-radioactive labeled short oligonucleotide probe. The extent of hybridization is then quantitated by transferring the reaction mixture in a streptavidin-coated flash plate, where the binding between biotin and streptavidin occurs. The telomerase activity is proportional to the radioactivity measured and the inhibitory activity of the compounds is evaluated as IC50 using the Sigma Plot fit program.
The IC50 values for the compounds of the present invention were determined according to the above-described method.

T1 sequence (O14746 whole entry): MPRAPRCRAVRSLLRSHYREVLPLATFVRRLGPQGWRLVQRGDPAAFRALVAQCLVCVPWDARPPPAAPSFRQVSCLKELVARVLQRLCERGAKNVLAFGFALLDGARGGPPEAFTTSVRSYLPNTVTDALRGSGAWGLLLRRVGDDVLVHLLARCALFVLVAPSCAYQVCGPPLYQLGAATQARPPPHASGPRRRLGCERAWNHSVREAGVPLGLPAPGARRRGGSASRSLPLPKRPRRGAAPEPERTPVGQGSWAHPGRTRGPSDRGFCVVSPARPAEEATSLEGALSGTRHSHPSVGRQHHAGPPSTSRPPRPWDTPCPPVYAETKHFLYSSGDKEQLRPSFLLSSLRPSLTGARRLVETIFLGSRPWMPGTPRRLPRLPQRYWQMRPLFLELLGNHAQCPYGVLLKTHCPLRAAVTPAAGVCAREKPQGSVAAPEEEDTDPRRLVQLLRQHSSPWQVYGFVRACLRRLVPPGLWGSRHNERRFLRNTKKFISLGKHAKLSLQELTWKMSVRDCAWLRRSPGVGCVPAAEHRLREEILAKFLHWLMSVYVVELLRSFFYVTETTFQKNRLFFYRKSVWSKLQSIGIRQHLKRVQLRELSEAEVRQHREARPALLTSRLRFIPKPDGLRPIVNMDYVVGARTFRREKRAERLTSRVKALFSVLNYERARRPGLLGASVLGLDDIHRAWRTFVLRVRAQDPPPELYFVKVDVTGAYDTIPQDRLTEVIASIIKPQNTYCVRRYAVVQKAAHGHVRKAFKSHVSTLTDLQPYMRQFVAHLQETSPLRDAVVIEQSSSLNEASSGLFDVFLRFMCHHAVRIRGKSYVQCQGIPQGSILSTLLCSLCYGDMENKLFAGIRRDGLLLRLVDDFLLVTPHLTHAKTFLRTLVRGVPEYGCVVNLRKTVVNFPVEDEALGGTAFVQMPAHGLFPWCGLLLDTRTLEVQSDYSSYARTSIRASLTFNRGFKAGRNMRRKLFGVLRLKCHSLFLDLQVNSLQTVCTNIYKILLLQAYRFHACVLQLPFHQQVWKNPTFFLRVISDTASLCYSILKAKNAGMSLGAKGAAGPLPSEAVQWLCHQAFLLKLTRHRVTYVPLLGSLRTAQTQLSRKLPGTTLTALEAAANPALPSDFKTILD

The IC50 is the point on the concentration scale where inhibition reaches its midpoint. As for `O=C1C(=Cc2ccc(O)c(O)c2)Oc2c1ccc(O)c2O` [Compound 1, 2-(3,4-dihydroxybenzylidene)-6,7-dihydroxy-1-benzofuran-3(2H)-one], the IC50 came out at 0.3 µM.
To `O=C1C(=Cc2ccc3c(c2)OCO3)Oc2c1ccc(O)c2O` [Compound 2, 2-(1,3-benzodioxol-5-ylmethylene)-6,7-dihydroxy-1-benzofuran-3(2H)-one] belongs 13 µM.
`COc1ccc(C=C2Oc3c(ccc(O)c3O)C2=O)cc1OC` [Compound 3, 2-(3,4-dimethoxybenzylidene)-6,7-dihydroxy-1-benzofuran-3(2H)-one]: the half-maximal inhibitory concentration (IC50) came to 11 µM.
Regarding `O=C1C(=Cc2ccc(O)cc2O)Oc2c1ccc(O)c2O` [Compound 4, 2-(2,4-dihydroxybenzylidene)-6,7-dihydroxy-1-benzofuran-3(2H)-one], the IC50 was determined as 1.5 µM.
To `O=C1C(=Cc2ccc(Cl)c(Cl)c2)Oc2c1ccc(O)c2O` [Compound 5, 2-(3,4-dichlorobenzylidene)-6,7-dihydroxy-1-benzofuran-3(2H)-one] belongs 8 µM; to `O=C1c2ccc(O)c(O)c2OC1Cc1ccc(O)c(O)c1` (stereo not drawn) [Compound 89, 2-(3,4-dihydroxybenzyl)-6,7-dihydroxy-1-benzofuran-3(2H)-one], 7 µM.
